Experiments:
[1] = CD spectra of peptide in isolation (helicity, 222/208 ratio); assay type: physicochemical; conditions: 20 °C, 150 μM total peptide, pH 7.0
Description: ATF3, ATF3W_a, and ATF3W_eg and combined hit sequence ATF3W_aeg were synthesized using solid phase peptide synthesis, purified by RP-HPLC, and verified for correct mass using ESI-MS (Figure S3), after which circular dichroism (CD) was used to characterize both ATF3 and antagonist peptides for helicity and interactions as homodimers, as well as heterodimers with the ATF3 target. Global secondary analysis of both homodimeric and heterodimeric systems was carried out at a total peptide concentration of 150 μM to keep equimolar concentrations of each component helix. The 222/208 ratio was used to provide evidence on whether the helices were likely to be monomeric or adopt quaternary structure.[13] […] Furthermore, incubation of ATF3 with ATF3W_aeg elicited a significant conformational change in the sample relative to the average of the component peptides (Figure 6d black line vs red hash), providing compelling evidence for an interaction.[14] In addition, the component PCA hits were examined using CD.
Figure 6 CD spectra data indicates a ATF3-ATF3W_aeg interaction. […] Spectra were next measured at 20 and 5 °C and again post-thermal denaturation (PM 20 °C to establish reversible that unfolding is fully reversible) at a total peptide concentration of 150 μM and presented as mean residue ellipticity (MRE). […]

[2] = test system: M2 macrophages differentiated from the human THP-1 monocytic cell line; assay: THP-1 polarization assay and CCL-4 ELISA; assay type: cell-based; conditions: M2 macrophages from THP-1 (IL-4 polarized); 20 μM peptide with NLS-TAT appendage; 48 h; versus untreated
Source text: ATF3 is a transcriptional repressor that regulates both the extent and duration of pro-inflammatory gene expression.[17] Specifically, ATF3 has been implicated in the transcriptional repression of chemokines including chemokine (C–C motif) ligand 4 (CCL4),[18] also known as macrophage inflammatory protein (MIP-1β), which promotes recruitment of additional immune cells to inflamed tissues. In the context of cancer, ATF3 activity counters antitumor immunity and promotes tumor growth. We therefore explored the effect of the ATF3W-aeg antagonist peptide on CCL4 expression in M2 anti-inflammatory macrophages differentiated from the human THP-1 monocytic cell line. […]
Figure 10 ATF3W-aeg peptide stimulates expression of pro-inflammatory cytokine in M2 macrophages. CCL4 protein levels were measured by ELISA from supernatants of M2 macrophage cultures treated with either 20 μM ATF3W-aeg or negative control peptide (****p < 0.0001). […]
THP-1 cells were seeded in 12-well format at a concentration of 5 × 10^5 cells/well and treated with 7.5 ng/mL Phorbol 12-Myristate 13-Acetate (PMA, Sigma-Aldrich) in RPMI media supplemented with 10% FBS and 55 μM β-mercaptoethanol (BME). […] After 48 h, supernatants were collected and clarified by centrifugation, and the CCL-4 concentration was assessed by ELISA (MIP-1b Human Instant ELISA Kit, ThermoFisher Scientific) according to the manufacturer’s protocol.

[3] = Peptide permeability assay (PAMPA); assay type: in vitro ADME
Source text: Fig S4: CD data for ATF3 interacting with ATF3W-a and ATF3W-eg.
Peptide permeability assay: The PAMPA assay measures permeability across an artificial membrane. This method provides an in vitro model for passive diffusion. Passive diffusion is an important factor in determining transport through the gastrointestinal tract, penetration of the blood brain barrier, as well as transport across cell membranes. Permeability can also be influenced by several other mechanisms including paracellular transport and active uptake or efflux which are not assessed in PAMPA. Therefore, PAMPA provides a simplistic approach to permeability by only measuring a single mechanism. […]
Peptide permeability assay: To evaluate the peptide permeability, the BD™ pre-coated PAMPA plate system was employed. […] The peptide concentrations in both plates were determined by UV spectroscopy after the assembly plate system were incubated at room temperature for 5 hours, and the peptide permeability and mass retention were calculated by using the PAMPA plate system formula which recommended in the manufacture manual. […]
Serum stability: The quantity of peptide detected by LC-MS is plotted relative to the starting point […]
Fig S5: Shown are serum stability of ATF3W-aeg. The quantity of peptide detected by LC-MS is plotted […]

Ac-ELAALEQKAYALKQENAALEKEVAALEQKIAALK-NH2 (N-terminus and C-terminus assumed) [ATF3W_aeg]
fractional helicity (fH), peptide in isolation ([1]; 10 mM potassium phosphate, 100 mM potassium fluoride): ~38%
222/208 ratio, peptide in isolation [1]: 0.76
effect on CCL4 expression (protein in supernatant, ELISA) [2]: significantly increased CCL4 expression
PAMPA mass retention ([3]; BD pre-coated PAMPA plate system, 200uM peptide in PBS, room temperature, 5 hours, UV spectroscopy): 5.8%
PAMPA permeability category ([3]; category by Log(Permeability) larger than -6, industry standard in BD PAMPA manual): high permeability

— PMC10949195, “Exponential Combination of a and e/g Intracellular Peptide Libraries Identifies a Selective ATF3 Inhibitor” (ACS Chemical Biology, 2024)
